Measurements: the NIST ThermoML archive (doi:10.1016/j.fluid.2006.10.024)
± gives the expanded uncertainty stated by the source.

Settings: Liquid; for mass density: 101.33 kPa

SMILES | mass density (298.15 K) [kg/m3] | vapor or sublimation pressure (298.15 K) [kPa] | mass density (313.15 K) [kg/m3] | vapor or sublimation pressure (313.15 K) [kPa] | mass density (328.15 K) [kg/m3] | vapor or sublimation pressure (328.15 K) [kPa]
C1COCCO1 [1,4-dioxane] | 1027.87 ± 0.71 | 4.9 ± 0.12 | 1010.69 ± 0.63 | 10.17 ± 0.16 | 993.75 ± 0.6 | 19.54 ± 0.23
C1COCO1 [1,3-dioxolane] | 1058.62 ± 0.85 | 13.54 ± 0.18 | 1039.88 ± 0.76 | 26.83 ± 0.29 | 1020.86 ± 0.67 | 49.01 ± 0.47

Second part, the compound after the results:

mass density (298.15 K) [kg/m3] | vapor or sublimation pressure (298.15 K) [kPa] | mass density (313.15 K) [kg/m3] | vapor or sublimation pressure (313.15 K) [kPa] | mass density (328.15 K) [kg/m3] | vapor or sublimation pressure (328.15 K) [kPa] | SMILES
877 ± 1 | 4.055 ± 0.11 | 861.52 ± 1.1 | 8.45 ± 0.14 | 846.33 ± 1.1 | 16.4 ± 0.21 | CCCCCCl [1-chloropentane]
881.95 ± 0.45 | 21.61 ± 0.25 | 865.36 ± 0.49 | 40.62 ± 0.4 | 848.68 ± 0.52 | 70.61 ± 0.63 | C1CCOC1 [tetrahydrofuran]
878.81 ± 1 | 9.56 ± 0.15 | 863.67 ± 1.1 | 18.66 ± 0.23 | 848.29 ± 1.1 | 33.95 ± 0.35 | C1CCOCC1 [tetrahydropyran]
